# Assay results published in US7253177B2, “Synthesis and antimalarial activity of pyrrolo[3,2-f]quinazoline-1,3-diamine derivatives” (United States of America as Represented by the Secretary of …, priority 2004, dated 2007).
# Values joined by “and” are separate entries in the source; they are usually repeats but may differ in a detail not shown here. Equal entries are not always repeated.
# System: P. cynomolgi sporozoites
# Assay: Presumptive causal prophylactic test against P. cynomolgi in Rhesus monkey
# Assay type: in vivo, Plasmodium cynomolgi
# Conditions: for protection compared with untreated control: oral 3 mg/kg, 3 mg/kg
# Procedure: (e). Toxicity Study in Aotus monkey: Protocol: Two malaria double cured Aotus weighing 1027-695 grams respectively received single dose of 3 mg/kg orally of the two compounds 2b and 3e. The monkeys were weighed and pre-bleed for CBC and Chemistry (ALT, BUN, Creatinine) determination, and again three, seven and 15 days post treatment. Signs of toxicity such as anorexia, vomiting, diarrhea or behavior changes were recorded. […] (f). Antimalarial Activity against P. falciparum in Aotus monkey: Protocol: Six (6) malaria naive Aotus lemurinus lemurinus (weigh 787-978 grms) were divided into two groups of two Aotus each plus two controls (MN13177 male and MN 13153 male) and infected with 5×10^6 P. falciparum FVO malaria parasites with 1 ml of an appropriate dilution in RPMI media intravenously on the saphenous vein. When their parasitemia reached 5×10^4 parasites/ul, treatment was started. Giemsa-stained thick blood smears were prepared daily with a prick in the ear marginal vein and parasites enumerated by the Earle and Perez method. Group 1 Aotus received 3e at 1 mg/kg once a day×three days. Group 2 Aotus received 2b at 1 mg/kg once a day×three days. The monkeys were weight and pre-bled for CBC and Chemistry (ALT, BUN, Creatinine) determination, and on day 4 post-treatmetne (PT). Bleedings for Pk determinations were carried out on day 1 PT at time 0, 1 hr, 7:30 hr and 24 hr PT. Group 1 (receiving 3e) animals cleared the parasitemias on day 3 post treatment (PT) and remained negative up to 100 days PT. In group 2 (receiving 2b), one animal cleared on day 3 PT and the other one on day 4 PT remaining negative up to 100 days PT. […] (g). Antimalarial Activity against P. vivax in Aotus monkey: Protocol: Fourteen (14) P. falciparum cured Aotus l. lemurinus monkeys (male and female) (weight 700-925 grms) were infected intravenously with 5×10^6 parasites of the P. vivax AMRU-1 strain diluted in RPMI media obtained from a donor and divided into two larger groups of 6 monkeys each (Group I and Group II) (2 monkeys per dose level), that received 3e and 6 monkeys (2 monkeys per dose level) that received 2b daily at 0.5, 1.0 and 3 mg/kg/day for a total of 3 days. Two monkeys were left has untreated controls. Treatment started when parasitemia reached 5,000 parasites×cc/mm on day 6 PI. Daily food intake was documented. Daily Giemsa-stained thick blood smears were prepared from a prick in the marginal ear vein and parasites enumerated by the Earle and Perez method. The animals were weighed at weekly intervals. Blood samples for Pk determination were collected at the following time points as follows: Day 0: CBC and chemistry panel (ALT. Creatinine and BUN); Day 4: CBC and chemistry Panel. CBC and chemistry panels were done the day prior to first dose and 24 hours after last dose and at weekly intervals thereafter. […] The other monkeys received 1 and 3 mg/kg of 3e remained negative until day 100 PT. In Group II, all monkeys except for one that received 3 mg/kg of 2b failed treatment and were retreated on day 3 PT with 3e at either 0.25, 0.5 or 1 mg/kg for three days. In the monkeys that received re-treatment at 0.25 mg/kg, one cleared on day 4 PT but needed to be treated with Mefloquine on day 8 PT due to a low platelet count. The other animals that had not been cleared by day 6 PT were treated with Mefloquine. […] P. vivax is known to be very drug resistant to antifolates. (h). Presumptive Causal Prophylactic Test against P. cynomolgi in Rhesus monkey: Protocol:
# (1). Type of study: This study is causal prophylactic test. Six Rhesus monkeys weighing 3-4 kg were randomized to 2 control animals and 2 groups of 2 experimental animals each.
# (2). Donor monkey: A donor monkey was inoculated intravenously with 1.3 mL freshly-thawed frozen infected red blood cell. When the monkey developed gametocytemia, mosquito feedings were conducted on days 13 and 14 after inoculation. […]
Compound,comparative protection activity (P. cynomolgi),"day of parasitemia development after sporozoite challenge (oral 1 mg/kg on days -1, 0, 1, control day 8, listed as WR288830)",protection compared with untreated control,"day of parasitemia development after sporozoite challenge (oral 1 mg/kg on days -1, 0, 1, control day 8)","day of parasitemia development after sporozoite challenge (oral 3 mg/kg on days -1, 0, 1, control day 8) [days]"
CCOC(=O)Nc1nc(NC(=O)OCC)c2c(ccc3c2ccn3Cc2ccccc2C(F)(F)F)n1 [Compound 2b],better protection activity than 3e,9 days and 15 days,8 days and 15 days,,
"CC(=O)N(C(C)=O)c1nc(N(C(C)=O)C(C)=O)c2c(ccc3c2ccn3Cc2ccccc2C(F)(F)F)n1 [Compound 3e, 1,3-Bis(diacetylamino)-7-(2-trifluoromethyl)benzyl-7H-pyrrolo[3,2-f]quinazoline]",,,7 days,8 days and 11 days,15
